Where two headings read alike, the source gives them in different places. Where a SMILES comes first, the peptide text is derived from it. [ ]: non-standard residue; d: D form. The star is where a group is joined. Biotin = O=C1N[C@H]2[C@H](CS[C@H]2CCCCC(=O)*)N1; Myristoyl = CCCCCCCCCCCCCC(=O)*; Aad = N[C@@H](CCCC(=O)O)C(=O)O; AEEA = NCCOCCOCC(=O)O
How the values were obtained:
HSA [1] = target: T1, HSA (Homo sapiens, UniProt P02768); experiment: Bio-layer interferometry (BLI) assay of non-covalent biotinylated RAEs with HSA; format: binding; conditions: human serum albumin (HSA)
T1 construct: purchased Sigma Aldrich
Procedure: S5. BLI Assay for Biotinylated Non-covalent Peptidomimetics.
Figure S6 Chemical Structure of Non-covalent Biotinylated RAEs (NCB-LYL1-4, NCB-LYLG) Biotinylated Non-covalent RAEs was synthesized by replacing acrylamide with acetyl group to study the intrinsic binding affinity of peptidomimetics using bio-layer interferometry (BLI) assay. For BLI assay, 1 μM non-covalent biotinylated RAEs (Figure S6) solution was prepared by kinetic buffer as the bait. As the fish, HSA solution at various concentration prepared by serial dilution using kinetic buffer, and the last well of dilution was filled with kinetic buffer as the reference well. Using 96-well plate, the biosensors were equilibrated in kinetic buffer for 60s. Then biosensors dipped ligands […]
wells, kinetic buffer wells, HSA well, kinetic buffer wells again for 120s, 60s, 480s, 960s as loading, baseline, association, and dissociation step, respectively. The data was subtracted by reference wells and processed by ForteBio Data Analysis software to derive the Kd value using steady-state approximation by 1:1 model (Figure S7-S8)
Figure S7 Bio-layered Interferometry for NCB-LYL1-4 and NCB -LYL -G
(1 picture or pasted object on this page, not shown here)

HSA [2] = target: T1, HSA; experiment: Neutravidin pull-down assay for conjugation yield of biotinylated HSA; format: biochemical
Procedure: Zeba spin desalting columns were pre-equilibrated by PBS buffer 3 times on
centrifugation (1500 x g, 1 minute). After conjugation, HSA-LYL conjugates passed
through the equilibrated Zeba desalting column. The flow through was collected and
further condensed by a 500 μL ultracentrifugation tube (MW cutoff = 3000) at 1 5000
rpm at 4 °C for 15 minutes. The resulting condensed solution was immediately
reconstituted by PBS (pH = 7.2), and the condensation process was repeated 2 times to
further remove biotinylated peptidomimetics. After that, the condensed HSA conjugate
(typically 20-50 μL) was diluted by 100 μL PBS for Neutravidin pull-down assay.
Using neutravidin-immobilized agarose, the NeutrAvidin pull-down assay intercepted
biotinylated proteins through biotin-avidin interaction. Therefore, the conjugation yield
can be determined by measuring the difference caused by NeutrAvidin pull -down.
The yield of conjugation is calculated based on the concentration difference of HSA
before and after passing through Neutrvidin agarose, which is calculated by following
𝑌𝑖𝑒𝑙𝑑 = 𝐶𝐻𝑆𝐴 𝑆𝑡𝑜𝑐𝑘−𝐶𝐻𝑆𝐴 𝐹𝑙𝑜𝑤−𝑡ℎ𝑟𝑜𝑢𝑔ℎ × 100% (1) […]
concentration was determined by Bicinchoninic acid (BCA) assay. […]
coulometric reactions were performed at 68°C for 30 minutes and the UV absorbance at
562 nm was measured by plate reader. […]
fluorescence intensity of corresponding Western blots.
was calculated without background subtraction .

[3] = BLI, 1 μM non-covalent biotinylated RAE as bait, HSA serial dilution in kinetic buffer, association 480 s, dissociation 960 s, steady-state, 1:1 model, read-out: Kd

T1 sequence (P02768 25-609): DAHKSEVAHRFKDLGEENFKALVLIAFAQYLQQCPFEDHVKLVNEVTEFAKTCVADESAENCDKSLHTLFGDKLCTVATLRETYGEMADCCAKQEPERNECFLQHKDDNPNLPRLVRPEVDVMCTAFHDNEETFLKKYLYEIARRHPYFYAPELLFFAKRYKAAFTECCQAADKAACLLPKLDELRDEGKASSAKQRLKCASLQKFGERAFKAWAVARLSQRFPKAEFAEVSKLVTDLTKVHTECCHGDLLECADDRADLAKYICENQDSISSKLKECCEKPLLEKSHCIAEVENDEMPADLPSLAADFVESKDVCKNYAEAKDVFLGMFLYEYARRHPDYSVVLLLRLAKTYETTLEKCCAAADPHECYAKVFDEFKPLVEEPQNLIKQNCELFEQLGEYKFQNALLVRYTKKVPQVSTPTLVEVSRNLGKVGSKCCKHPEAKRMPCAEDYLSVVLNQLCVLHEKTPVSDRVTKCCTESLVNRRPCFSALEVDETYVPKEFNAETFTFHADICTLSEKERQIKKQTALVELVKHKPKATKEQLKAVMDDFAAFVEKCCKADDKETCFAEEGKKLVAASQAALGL

Kd at 480 s (HSA [1]; [3]) [µM] | Structure (SMILES) | further results
1.4 | CCCCCCCCCCCCCC(=O)N[C@H](CCC(=O)O)C(=O)N[C@@H](CC(=O)O)C(=O)N[C@@H](CCCCNC(C)=O)C(=O)N[C@H](CO)C(=O)N[C@@H](CCCC(=O)O)C(=O)NCCOCCOCC(=O)NCCOCCOCC(=O)N[C@@H](CCCCNC(=O)CCCC[C@@H]1SC[C@@H]2NC(=O)N[C@@H]21)C(N)=O [NCB-LYL1] (Myristoyl-[dE]DK(Ac)[dS][Aad][AEEA][AEEA]K(Biotin)-NH2) | 
2.8 | CCCCCCCCCCCCCC(=O)N[C@H](C)C(=O)N[C@@H](CCCC(=O)O)C(=O)N[C@@H](CCCCNC(C)=O)C(=O)N[C@H](CCC(=O)O)C(=O)N[C@H](CO)C(=O)NCCOCCOCC(=O)NCCOCCOCC(=O)N[C@@H](CCCCNC(=O)CCCC[C@@H]1SC[C@@H]2NC(=O)N[C@@H]21)C(N)=O [NCB-LYL4] (Myristoyl-[dA][Aad]K(Ac)[dE][dS][AEEA][AEEA]K(Biotin)-NH2) | 
 | CCCCCCCCCCCCCC(=O)NCC(=O)NCC(=O)N[C@@H](CCCCNC(C)=O)C(=O)NCC(=O)NCC(=O)NCCOCCOCC(=O)NCCOCCOCC(=O)N[C@@H](CCCCNC(=O)CCCC[C@@H]1SC[C@@H]2NC(=O)N[C@@H]21)C(N)=O [NCB-LYLG] (Myristoyl-GGK(Ac)GG[AEEA][AEEA]K(Biotin)-NH2) | Kd at 480 s (HSA [1]; BLI assay, non-covalent (acetyl instead of acrylamide) biotinylated RAEs, read-out: Kd / binding affinity toward HSA): 12 µM
1 | CCCCCCCCCCCCCC(=O)N[C@H](CCC(=O)O)C(=O)N[C@@H](CCCC(=O)O)C(=O)N[C@@H](CCCCNC(C)=O)C(=O)N[C@@H](CC(=O)O)C(=O)N[C@@H](Cc1ccc(O)cc1)C(=O)NCCOCCOCC(=O)NCCOCCOCC(=O)N[C@@H](CCCCNC(=O)CCCC[C@@H]1SC[C@@H]2NC(=O)N[C@@H]21)C(N)=O [NCB-LYL2] (Myristoyl-[dE][Aad]K(Ac)DY[AEEA][AEEA]K(Biotin)-NH2) | 
2.4 | CCCCCCCCCCCCCC(=O)N[C@H](CCC(=O)O)C(=O)N[C@@H](CCCCNC(C)=O)C(=O)N[C@@H](CCCC(=O)O)C(=O)N[C@H](CCC(=O)O)C(=O)NCCOCCOCC(=O)NCCOCCOCC(=O)N[C@@H](CCCCNC(=O)CCCC[C@@H]1SC[C@@H]2NC(=O)N[C@@H]21)C(N)=O [NCB-LYL3] (Myristoyl-[dE]K(Ac)[Aad][dE][AEEA][AEEA]K(Biotin)-NH2) | 
 | O=C1N[C@H]2[C@H](CS[C@H]2CCCCC(=O)Oc2ccc([N+](=O)[O-])cc2)N1 [NBE, 4-Nitrophenyl biotin ester] | Conjugation Yield (HSA [2]; 10 μM HSA, 50 μM RAE or NBE, PBS pH 7.2, room temperature, 1 h, BCA read-out, 3 replications, no background subtraction): 99.0%; uptake by immobilized neutravidin agarose (conjugation yield, text) (HSA [2]; initial condition, physiological pH 7.2, 1 h): ~100%

From PMC9782315, “Site-Specific Albumin-Selective Ligation to Human Serum Albumin under Physiological Conditions” (Bioconjugate Chemistry, 2022)
